Measured values from paper PMC8222254, “Self-assembly of an anion receptor with metal-dependent kinase inhibition and potent in vitro anti-cancer properties” (Nature Communications, 2021).
Several values for one entry are separate records, joined by “and”; a condition that tells them apart may be missing. Identical values can stand only once.

Legend:
Experiment in all cases: Kinase inhibition screen, cell-free 33P ATP assay at 10 μM
Assay type in all cases: biochemical
[1] = target: T1, 140 purified human kinases (Homo sapiens, UniProt P29323)
T1 sequence (P29323 19-1055): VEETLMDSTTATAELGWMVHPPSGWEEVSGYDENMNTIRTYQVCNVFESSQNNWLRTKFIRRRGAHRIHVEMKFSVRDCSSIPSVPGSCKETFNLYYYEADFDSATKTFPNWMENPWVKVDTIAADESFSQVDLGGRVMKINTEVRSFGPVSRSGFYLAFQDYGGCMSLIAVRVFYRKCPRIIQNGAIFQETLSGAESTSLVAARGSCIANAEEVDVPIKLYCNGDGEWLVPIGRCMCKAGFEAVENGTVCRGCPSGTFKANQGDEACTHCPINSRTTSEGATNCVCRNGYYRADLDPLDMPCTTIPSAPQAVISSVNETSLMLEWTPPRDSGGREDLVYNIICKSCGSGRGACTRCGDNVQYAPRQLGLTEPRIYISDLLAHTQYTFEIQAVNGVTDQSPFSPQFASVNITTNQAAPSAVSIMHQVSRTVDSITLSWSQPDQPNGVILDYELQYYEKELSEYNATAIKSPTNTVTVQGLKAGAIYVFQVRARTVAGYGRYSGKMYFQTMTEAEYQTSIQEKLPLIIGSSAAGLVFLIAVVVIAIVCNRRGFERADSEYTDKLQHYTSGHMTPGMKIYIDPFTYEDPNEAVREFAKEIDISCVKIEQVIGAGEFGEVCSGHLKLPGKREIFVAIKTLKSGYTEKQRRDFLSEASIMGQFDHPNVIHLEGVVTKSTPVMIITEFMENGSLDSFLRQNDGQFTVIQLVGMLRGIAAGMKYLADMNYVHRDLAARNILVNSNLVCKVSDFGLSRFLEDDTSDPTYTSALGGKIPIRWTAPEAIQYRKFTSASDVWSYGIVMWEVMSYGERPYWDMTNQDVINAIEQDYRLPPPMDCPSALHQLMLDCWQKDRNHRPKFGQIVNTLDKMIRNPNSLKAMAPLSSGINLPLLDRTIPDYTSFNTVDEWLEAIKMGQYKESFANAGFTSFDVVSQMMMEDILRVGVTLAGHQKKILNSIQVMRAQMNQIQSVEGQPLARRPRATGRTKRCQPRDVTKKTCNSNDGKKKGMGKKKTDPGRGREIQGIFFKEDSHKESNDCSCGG
In short: (§1)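 Each complex tested in duplicate at 10 μM; cell-free radiometric assay using ^33P ATP on purified enzymes. Hits mapped by HGNC symbol onto the kinome tree.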

[2] = target: 140 purified human kinases (Homo sapiens, UniProt P51812)
In short: as §1

[3] = target: 140 purified human kinases (Homo sapiens, UniProt P53350); settings: for % Activity Run 1 / % Activity Run 2: 10 µM
In short: as §1

[4] = target: T2, 140 purified human kinases (Homo sapiens, UniProt Q99683)
T2 sequence (Q99683 1-1374): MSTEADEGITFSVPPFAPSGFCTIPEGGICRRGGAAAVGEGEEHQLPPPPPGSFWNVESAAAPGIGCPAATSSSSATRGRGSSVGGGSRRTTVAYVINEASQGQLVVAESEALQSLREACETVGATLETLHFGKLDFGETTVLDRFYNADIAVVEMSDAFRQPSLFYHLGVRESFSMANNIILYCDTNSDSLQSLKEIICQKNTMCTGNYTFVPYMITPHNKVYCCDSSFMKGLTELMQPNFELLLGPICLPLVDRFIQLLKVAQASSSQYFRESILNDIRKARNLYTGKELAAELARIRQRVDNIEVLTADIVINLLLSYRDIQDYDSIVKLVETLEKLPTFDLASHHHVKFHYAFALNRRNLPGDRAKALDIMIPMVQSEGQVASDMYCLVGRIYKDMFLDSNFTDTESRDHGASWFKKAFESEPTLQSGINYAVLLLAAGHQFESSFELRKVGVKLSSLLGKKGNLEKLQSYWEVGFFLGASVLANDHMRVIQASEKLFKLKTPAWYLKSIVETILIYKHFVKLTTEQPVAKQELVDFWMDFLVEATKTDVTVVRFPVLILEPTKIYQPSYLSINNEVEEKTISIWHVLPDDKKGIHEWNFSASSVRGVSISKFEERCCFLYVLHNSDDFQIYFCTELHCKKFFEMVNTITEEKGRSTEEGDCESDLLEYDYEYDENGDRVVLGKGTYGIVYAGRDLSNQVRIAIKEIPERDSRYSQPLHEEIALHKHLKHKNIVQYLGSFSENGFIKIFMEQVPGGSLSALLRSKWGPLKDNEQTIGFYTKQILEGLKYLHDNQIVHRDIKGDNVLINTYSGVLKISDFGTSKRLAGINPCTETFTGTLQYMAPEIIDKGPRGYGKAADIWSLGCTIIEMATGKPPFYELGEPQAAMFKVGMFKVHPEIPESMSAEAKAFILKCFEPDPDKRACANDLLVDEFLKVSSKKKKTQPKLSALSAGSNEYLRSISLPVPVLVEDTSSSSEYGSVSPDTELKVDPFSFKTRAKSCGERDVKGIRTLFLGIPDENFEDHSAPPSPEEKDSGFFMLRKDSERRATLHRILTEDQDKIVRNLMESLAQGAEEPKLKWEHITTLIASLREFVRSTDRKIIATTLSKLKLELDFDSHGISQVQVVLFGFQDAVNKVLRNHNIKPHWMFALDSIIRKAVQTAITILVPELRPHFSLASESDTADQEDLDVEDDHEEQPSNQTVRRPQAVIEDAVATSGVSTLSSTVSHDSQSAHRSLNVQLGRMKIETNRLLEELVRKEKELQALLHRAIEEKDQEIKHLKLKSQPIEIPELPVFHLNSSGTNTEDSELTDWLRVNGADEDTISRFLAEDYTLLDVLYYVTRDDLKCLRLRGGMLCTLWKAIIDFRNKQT
In short: as §1

Chain of 140 purified human kinases (Homo sapiens, UniProt P53350) (P53350 whole entry): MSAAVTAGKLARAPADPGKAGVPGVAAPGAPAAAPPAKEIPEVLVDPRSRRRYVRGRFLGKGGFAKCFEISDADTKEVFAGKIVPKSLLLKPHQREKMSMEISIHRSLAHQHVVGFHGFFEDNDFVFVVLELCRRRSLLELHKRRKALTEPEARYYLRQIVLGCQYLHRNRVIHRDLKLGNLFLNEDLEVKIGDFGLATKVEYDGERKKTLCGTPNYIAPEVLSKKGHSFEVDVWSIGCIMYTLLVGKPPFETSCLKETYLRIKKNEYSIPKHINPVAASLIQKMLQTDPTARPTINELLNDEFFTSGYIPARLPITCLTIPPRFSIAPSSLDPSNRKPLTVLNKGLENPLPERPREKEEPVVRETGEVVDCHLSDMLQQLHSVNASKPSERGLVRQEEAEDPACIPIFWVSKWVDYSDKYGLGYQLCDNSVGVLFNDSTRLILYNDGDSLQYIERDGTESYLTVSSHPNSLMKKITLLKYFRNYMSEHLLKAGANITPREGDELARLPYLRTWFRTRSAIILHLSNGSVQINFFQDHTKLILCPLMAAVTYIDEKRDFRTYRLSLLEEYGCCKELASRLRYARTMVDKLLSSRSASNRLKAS
Chain of 140 purified human kinases (Homo sapiens, UniProt P51812) (P51812 whole entry): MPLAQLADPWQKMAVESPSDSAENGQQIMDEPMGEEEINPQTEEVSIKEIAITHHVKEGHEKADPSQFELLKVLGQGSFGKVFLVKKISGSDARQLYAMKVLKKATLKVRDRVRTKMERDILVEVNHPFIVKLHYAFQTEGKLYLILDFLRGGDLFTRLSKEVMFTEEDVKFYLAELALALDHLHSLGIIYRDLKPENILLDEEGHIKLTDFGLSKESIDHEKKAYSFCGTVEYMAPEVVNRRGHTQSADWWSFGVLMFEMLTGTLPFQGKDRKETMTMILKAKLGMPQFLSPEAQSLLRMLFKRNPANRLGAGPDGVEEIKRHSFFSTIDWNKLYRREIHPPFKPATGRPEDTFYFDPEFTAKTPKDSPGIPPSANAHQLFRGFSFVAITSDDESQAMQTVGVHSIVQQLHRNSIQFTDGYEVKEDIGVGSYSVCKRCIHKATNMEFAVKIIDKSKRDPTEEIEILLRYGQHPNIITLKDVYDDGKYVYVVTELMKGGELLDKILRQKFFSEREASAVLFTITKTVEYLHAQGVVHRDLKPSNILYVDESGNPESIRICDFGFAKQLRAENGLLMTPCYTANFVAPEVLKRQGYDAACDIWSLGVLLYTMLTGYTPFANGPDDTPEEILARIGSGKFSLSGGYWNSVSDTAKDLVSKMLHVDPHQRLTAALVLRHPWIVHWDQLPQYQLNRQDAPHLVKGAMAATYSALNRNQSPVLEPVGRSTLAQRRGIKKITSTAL

[Cu+2].[Cu+2].[Cu+2].c1ccc(-c2csc(NCCN(CCNc3nc(-c4ccccn4)cs3)CCNc3nc(-c4ccccn4)cs3)n2)nc1.c1ccc(-c2csc(NCCN(CCNc3nc(-c4ccccn4)cs3)CCNc3nc(-c4ccccn4)cs3)n2)nc1 [[L2Cu3]6+]
% Inhibition Run 1 ([1]; EPH-B2): 57.3% | % Inhibition Run 2 ([1]; EPH-B2): 57.8% | % Inhibition, Mean ([1]; EPH-B2): 58% | mean % activity ([1]; EPH-B2): 42% | % activity ([1]; EPH-B2, Run 1): 42.7% | % activity ([1]; EPH-B2, Run 2): 42.2% | % Inhibition Run 1 ([2]; RSK2): 87.4% | % Inhibition Run 2 ([2]; RSK2): 87.7% | % Inhibition, Mean ([2]; RSK2): 88% | mean % activity ([2]; RSK2): 12% | % activity ([2]; RSK2, Run 1): 12.6% | % activity ([2]; RSK2, Run 2): 12.3% | % Activation, Mean value ([3]; PLK1): 12% | % Inhibition Run 1 ([3]; PLK1): -4.1% | % Inhibition Run 2 ([3]; PLK1): -19.1% | % Inhibition, Mean ([3]; PLK1): -12% | mean % activity ([3]; PLK1): 112% | % activity ([3]; PLK1, Run 1): 104.1% | % activity ([3]; PLK1, Run 2): 119.1% | % Activity Run 1 ([3]; PLK1): 104.10% | % Activity Run 2 ([3]; PLK1): 119.10% | % Inhibition Run 1 ([4]; ASK1): 16.4% | % Inhibition Run 2 ([4]; ASK1): 15.5% | % Inhibition, Mean ([4]; ASK1): 16% | mean % activity ([4]; ASK1): 84% | % activity ([4]; ASK1, Run 1): 83.6% | % activity ([4]; ASK1, Run 2): 84.5%

CC(=O)[O-].CC(=O)[O-].CC(=O)[O-].CC(=O)[O-].CC(=O)[O-].CC(=O)[O-].[Zn+2].[Zn+2].[Zn+2].c1ccc(-c2csc(NCCN(CCNc3nc(-c4ccccn4)cs3)CCNc3nc(-c4ccccn4)cs3)n2)nc1.c1ccc(-c2csc(NCCN(CCNc3nc(-c4ccccn4)cs3)CCNc3nc(-c4ccccn4)cs3)n2)nc1 [[L2Zn3]6+]
% Inhibition, Mean ([1]; EPH-B2): 88% | % Inhibition, Run 1 / Run 2 ([1]; EPH-B2): 89% and 87% | mean % activity ([1]; EPH-B2): 12% | % Activity inhibition Mean ([1]; EPH-B2, 10 µM): 88.0% | % Activity inhibition Run 1 ([1]; EPH-B2, 10 µM): 89% | % Activity inhibition Run 2 ([1]; EPH-B2, 10 µM): 87% | % Activity remaining Run 1 ([1]; EPH-B2, 10 µM): 11% | % Activity remaining Run 2 ([1]; EPH-B2, 10 µM): 13% | % activity ([1]; EPH-B2, duplicate runs): 11% and 13% | % Inhibition, Mean ([2]; RSK2): 44% | % Inhibition, Run 1 / Run 2 ([2]; RSK2): 50% and 39% | mean % activity ([2]; RSK2): 56% | % activity ([2]; RSK2, duplicate runs): 50% and 61% | % Activation, Mean value ([3]; PLK1): 17% | % Inhibition, Mean ([3]; PLK1): -17% | % Inhibition, Run 1 / Run 2 ([3]; PLK1): -15% and -19% | mean % activity ([3]; PLK1): 117% | % Activity Run 1 ([3]; PLK1): 115.0% | % Activity Run 2 ([3]; PLK1): 119.0% | % activity ([3]; PLK1, duplicate runs): 115% and 119% | % Inhibition, Mean ([4]; ASK1): 27% | % Inhibition, Run 1 / Run 2 ([4]; ASK1): 31% and 24% | mean % activity ([4]; ASK1): 73% | % activity ([4]; ASK1, duplicate runs): 70% and 76%
